Source: patent publication US8013006B2

Legend:
HCV replicon = assay: microbe, parasite or virus in culture; assay type: cell-based; conditions: Hepatitis C virus, 48 h, read-out: Replicon IC5Os

Structure (SMILES)	IC50 (HCV replicon) [nM]	melting point [°C]
CCOc1ccc2c(C#N)c(-c3ccc(N(C)S(=O)(=O)CC)cc3)n(CC)c2c1 [Compound 693]	< 500	163 to 164
CCn1c(-c2ccc(N3CCCS3(=O)=O)cc2)c(C#N)c2ccc(OCCF)cc21 [Compound 699]	< 500	255 to 258
CCn1c(-c2ccc3c(c2)CCN3S(C)(=O)=O)c(C#N)c2ccc(OC)cc21 [Compound 701]	500 to 2000	188 to 194
CCn1c(-c2ccc3c(c2)CCN3S(=O)(=O)CC)c(C#N)c2ccc(OC)cc21 [Compound 702]	500 to 2000	147 to 150
CCCCn1c(-c2ccc(NS(=O)(=O)CC)cc2)c(C#N)c2ccc(OC)cc21 [Compound 707]	500 to 2000	159 to 161
CCCCn1c(-c2ccc(NS(=O)(=O)C3CC3)cc2)c(C#N)c2ccc(OC)cc21 [Compound 709]	< 500	166 to 168
CCCn1c(-c2ccc(NS(=O)(=O)CC)cc2)c(C#N)c2cc(OCc3ccccc3)ccc21 [Compound 713]	500 to 2000	199 to 202
COc1ccc2c(C#N)c(-c3ccc(N4CCCS4(=O)=O)cc3)n(CC(C)C)c2c1 [Compound 717]	500 to 2000	205 to 207
COc1ccc2c(C#N)c(-c3cccc(NS(C)(=O)=O)c3)n(C3CCCC3)c2c1 [Compound 720]	500 to 2000	172 to 178
COc1ccc2c(C#N)c(-c3cccc(NC(=O)OC(C)C)c3)n(C3CCCC3)c2c1 [Compound 723]	500 to 2000	175 to 180
CCn1c(-c2ccc(N3CCN(Cc4ccccc4)S3(=O)=O)cc2)c(C#N)c2ccc(OC)cc21 [Compound 727]	500 to 2000	217 to 218
CCn1c(-c2ccc(N3CCCC3=O)cc2)c(C#N)c2ccc(OC(C)C)cc21 [Compound 731]	< 500	173 to 174
COc1ccc2c(C#N)c(-c3ccc(N4CCCC4=O)cc3)n(CCF)c2c1 [Compound 732]	500 to 2000	219 to 221
COC(=O)Nc1ccc(-c2c(C#N)c3ccc(OC(F)F)cc3n2CC2CC2)cc1 [Compound 734]	500 to 2000	167 to 169
CCOC(=O)Nc1ccc(-c2c(C#N)c3ccc(OC(F)F)cc3n2CC2CC2)cc1 [Compound 735]	< 500	123 to 125
CC(C)OC(=O)Nc1ccc(-c2c(C#N)c3ccc(OC(F)F)cc3n2CC2CC2)cc1 [Compound 737]	500 to 2000	153 to 155
N#Cc1c(-c2ccc(NC(=O)OCCF)cc2)n(CC2CC2)c2cc(OC(F)F)ccc12 [Compound 738]	< 500	149 to 151
CCCNC(=O)Nc1ccc(-c2c(C#N)c3ccc(OC(F)F)cc3n2CC2CC2)cc1 [Compound 741]	< 500	194 to 196
CCCCNC(=O)Nc1ccc(-c2c(C#N)c3ccc(OC(F)F)cc3n2CC2CC2)cc1 [Compound 742]	500 to 2000	171 to 173
N#Cc1c(-c2ccc(NC(=O)NC3CCCC3)cc2)n(CC2CC2)c2cc(OC(F)F)ccc12 [Compound 743]	< 500	129
COC(=O)Nc1cccc(-c2c(C#N)c3ccc(OC(F)F)cc3n2CC2CC2)c1 [Compound 744]	< 500	92 to 93
CCCCn1c(-c2ccc(NC(=O)OCCF)cc2)c(C#N)c2ccc(OC)cc21 [Compound 747]	< 500	136 to 137
CCCCn1c(-c2ccc(NC(=O)NCC)cc2)c(C#N)c2ccc(OC)cc21 [Compound 748]	< 500	186 to 188
CCCCn1c(-c2ccc(NC(=O)NCCC)cc2)c(C#N)c2ccc(OC)cc21 [Compound 749]	< 500	176 to 178
